According to PMC12362585, “Development and Preclinical Characterization of [^18F]H3-2406 and [^18F]H3-2407 for Positron Emission Tomography Imaging of the Histamine Subtype‑3 Receptor” (Journal of Medicinal Chemistry, 2025):

How the values were obtained:
sigma-1 receptor = sigma-1 receptor (Homo sapiens, UniProt Q99720); assay: sigma 1 binding assay; settings: ratio of sigma-1 K i to H3R K i
[1] = In vitro stability in liver microsomes, mice; assay type: in vitro ADME; settings: 90 min
Experimental: (§1) To assess the stability of [^18F]3, in vitro radioactivity analyses were conducted following 30-, 60- and 90 min coincubation of the radioligand in the serum and liver microsomes from mice, nonhuman primates (NHPs), and humans (Figure ).
(§2) Serum from mice, NHPs, and humans were warmed to room temperature, 15 MBq of [^18F]3 was added to 0.4 mL of each species’ serum. The mixtures were incubated at 37 °C and 0.1 mL of mixture was transferred into 0.2 mL cold acetonitrile at 30, 60, and 90 min. The samples were vortexed for 15 s and then centrifuged at 10,000g for 5 min. The supernatant was analyzed using analytical HPLC (Agilent 1100 series HPLC system on Phenomenex Luna C-18 column (4.6 × 150 mm), mobile phase 30% CH3CN/0.1% TFA in water, flow:1 mL/min). For microsomes studies, a mixture of microsomes (0.5 mg/mL), [^18F]3 (15 MBq), 0.35 mL of PBS, 0.05 mL of NADPH regenerating system A, and 0.01 mL of NADPH regenerating system B were incubated at 37 °C. The subsequent steps followed the same procedure as described above.

[2] = In vitro stability in serum, humans; assay type: in vitro ADME; settings: human serum, 37 °C, 30, 60 and 90 min
Experimental: as §1, §2

[3] = In vitro stability in liver microsomes, NHPs; assay type: in vitro ADME, nonhuman primates (NHPs); settings: 90 min
Experimental: as §1, §2

[4] = Ex vivo radiometabolite analysis in brain and plasma; settings: CD1 mice, 30 min postinjection
Experimental: Next, ex vivo stability in the brain and plasma of CD1 mice was analyzed by radio-HPLC (Figure ). At 30 min postinjection, the parent fraction of [^18F]3 in the brain was determined to be 96%, indicating excellent in vivo metabolic stability. In the blood, 31% of the radioactivity remained intact.
A dose of 15 MBq of [^18F]3 in 0.1 mL saline was intravenously injected into the tail vein of CD1 mice (5–6 weeks). The mice were sacrificed at 30 min postinjection, and the mice brain and blood were quickly collected and homogenized with cold acetonitrile. […] The radioactivity for each fraction was measured using a γ counter (PerkinElmer Wizard). Data analysis was performed by GraphPad Prism 8.0, and the percentage of [^18F]3 relative to total radioactivity (corrected for decay) was calculated as (peak area for [^18F]3 /total peak area) × 100%.

H3R [5] = biological target: T1, H3R (Homo sapiens, UniProt Q9Y5N1); assay: H3R competitive radioligand binding assay using [^3H]AZ13582963; settings: competitive binding vs [^3H]AZ13582963; read-out: H3R K i
T1 construct: Gifford Bioscience (contract laboratory that ran the assay)
T1 sequence (Q9Y5N1 whole entry, species assumed): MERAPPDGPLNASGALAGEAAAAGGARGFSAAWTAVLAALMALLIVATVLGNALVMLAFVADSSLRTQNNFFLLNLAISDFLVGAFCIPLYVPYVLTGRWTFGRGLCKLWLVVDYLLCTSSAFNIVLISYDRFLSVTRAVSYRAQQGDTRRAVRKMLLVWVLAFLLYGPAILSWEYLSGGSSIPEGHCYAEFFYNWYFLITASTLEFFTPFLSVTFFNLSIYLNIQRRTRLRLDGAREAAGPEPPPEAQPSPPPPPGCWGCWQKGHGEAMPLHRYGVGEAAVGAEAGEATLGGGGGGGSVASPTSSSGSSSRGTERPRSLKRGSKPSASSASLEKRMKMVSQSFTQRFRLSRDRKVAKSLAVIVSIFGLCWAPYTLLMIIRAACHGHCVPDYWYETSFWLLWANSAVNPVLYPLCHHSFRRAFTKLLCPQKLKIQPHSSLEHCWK

H3R [6] = biological target: T2, H3R (Rattus norvegicus, UniProt Q9QYN8); assay: In vitro autoradiography on rat brain sections; assay type: binding, SD rat
T2 construct: The brains of SD rat were sectioned into 15 μm slices; from tissue; host or cells: SD rat brain sections
T2 sequence (Q9QYN8 whole entry): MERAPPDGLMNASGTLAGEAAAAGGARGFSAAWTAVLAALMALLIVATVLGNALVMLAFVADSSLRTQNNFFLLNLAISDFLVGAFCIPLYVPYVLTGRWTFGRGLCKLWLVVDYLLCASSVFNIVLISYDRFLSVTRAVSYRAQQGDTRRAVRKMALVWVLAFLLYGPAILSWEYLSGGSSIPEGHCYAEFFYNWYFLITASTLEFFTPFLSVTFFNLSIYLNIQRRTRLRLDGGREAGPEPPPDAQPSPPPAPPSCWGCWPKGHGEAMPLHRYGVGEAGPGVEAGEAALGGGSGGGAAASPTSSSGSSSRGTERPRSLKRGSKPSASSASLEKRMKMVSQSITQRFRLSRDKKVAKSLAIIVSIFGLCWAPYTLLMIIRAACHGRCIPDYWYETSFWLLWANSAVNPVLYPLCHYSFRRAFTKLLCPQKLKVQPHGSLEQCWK
Experimental: To validate the target specificity and selectivity, in vitro autoradiography experiments were conducted using [^18F]3 and [^18F]4 on rat brain sections. […] Furthermore, pretreatment with unlabeled compound 3 (10 μM) led to a signal reduction of over 90% in the brain. […] This discrepancy is likely attributable to additional off-target binding of [^18F]3, which is further supported by high uptake in the cerebellum – a region with low H3R expression. […] The high uptake in the cerebellum may be attributed to nonspecific binding to unidentified CNS targets. […] Nonetheless, the results support further in vivo PET evaluation to better understand their binding profiles and evaluate their potential for H3R imaging – particularly in regions with low sigma-1 abundance.
The ARG was measured according to previously reported methods. , The brains of SD rat were sectioned into 15 μm slices and stored in −80 °C. For each experiment, the brain slices allowed them to warm to room temperature and then incubated in Tris-HCl buffer (50 mM, containing 0.1% bovine serum albumin) for 10 min. The slices were incubated with [^18F]3 or [^18F]4 (0.037 MBq/mL) in the presence of either DMSO (baseline study), GSK189254 (10 μM, blocking study), and unlabeled 3 or 4 (10 μM, blocking study) at room temperature for 30 min. Following incubation, the brain slices were washed three times with cold Tris-HCl buffer (50 mM) for 5 min each, and then dipped in water 2 times for 5 s. The brain slices were dried under cold air and exposed to a Phosphor Screen (BAS IP MS2025, Cytiva) for 2 h. The radioactivity and imaging were captured using an Amersham Typhoon 5 (Cytiva) and the data were analyzed using ImageJ software.

Sequence of sigma-1 receptor (Q99720 whole entry, species assumed): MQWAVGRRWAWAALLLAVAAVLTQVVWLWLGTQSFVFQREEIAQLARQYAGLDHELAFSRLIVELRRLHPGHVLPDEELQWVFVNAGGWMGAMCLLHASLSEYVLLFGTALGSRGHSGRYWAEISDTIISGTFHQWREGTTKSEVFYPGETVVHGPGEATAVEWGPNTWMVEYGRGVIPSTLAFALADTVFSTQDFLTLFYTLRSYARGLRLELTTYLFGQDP

Structure (SMILES): O=C([C@H]1C[C@@H]1c1ccc([18F])cc1)N1CCN(C2CCCC2)CC1 [[^18F]3]
- selectivity of H3R over sigma-1 (sigma-1 receptor): 69 fold
- parent fraction in liver microsomes [1]: 78%
- parent compound remaining intact in serum [2]: over 95%
- parent fraction in liver microsomes [3]: 85%
- parent fraction in the brain [4]: 96%
- Ki (H3R [5]): 2.87 nM
- reduction in radioactivity across brain regions, GSK189254 blocking (H3R [6]; GSK189254 10 μM): 43.6–86.0%
- signal reduction, self-blocking with unlabeled compound (H3R [6]; unlabeled 3 or 4 at 10 μM): over 90%
